In patent US20230116080A1, “METHOD FOR CONTROLLING THE GROWTH OF UNDESIRABLE VEGETATION” (UPL Limited, priority 2021, published 2023):

Tested on: weedy Eleusine indica
Experiment: Post-emergence herbicidal efficacy of L-glufosinate, other herbicides and their combinations in greenhouse trials (observed control vs Colby expected)
Type: in vivo
Settings: for Control %: Table 1
Description: Evaluation of Post-Emergence Herbicidal Activity of Composition Under […]
Greenhouse trials were carried out to evaluate the efficacy of the combination of L-glufosinate and the other herbicides on weedy Eleusine indica.
The soil used was sandy clay loam—Sand: 68.0%; Silt: 8.0%; Clay: 24.0%.
All treatments were in 3 replications per treatment with a spray volume of […].
The expected efficacy of a combination of L-glufosinate and the other herbicides was calculated using the well-established Colby method. Any difference between the observed and “expected” efficacy could be attributed to synergy between the two compounds.
In the Colby method, the expected (or predicted) response of a combination of herbicides is calculated by taking the product of the observed response for each individual component of the combination when applied alone, divided by 100, and subtracting this value from the sum of the observed response for each component when applied alone. An unexpected enhancement in efficacy of the combination is then determined by comparing the observed response of the combination to the expected (or predicted) response as calculated from the observed response of each individual component alone. If the observed response of the combination is greater than the expected (or predicted) response, or stated conversely, if the difference between the observed and expected response is greater than zero, then the combination is said to be synergistic or unexpectedly effective (Colby, S. R., Weeds, 1967(15), p. 20-22). The Colby method requires only a single dose of each herbicide applied alone and the mixture of both doses. The formula used to calculate the expected efficacy (EE) which was compared with the observed efficacy (OE) to determine the efficacy of the present invention is explained herein below:
The expected efficacy for a combination of two active ingredients is as follows:
The expected efficacy for a combination of three active ingredients is as follows:
The percentage efficacy was calculated after 7, 14, 21, 28, 35 days of applications (DAA). The target weed was weedy Eleusine indica, and the concentration of the herbicide and the results are recorded in the table 1 below:
The percentage efficacy was calculated after 7 and 35 days of application (DAA). The target weed was weedy Eleusine indica, and the concentration of the herbicide and the results are recorded in the table 2 below:
The percentage efficacy was calculated after 3, 7, 14, 21, 28, 35 days of application (DAA). The target weed was weedy Eleusine indica, and the concentration of the herbicide and the results are recorded in the table 3 below:
The target weed was weedy Eleusine indica, and the concentration of the herbicide and the results are recorded in the table 4 below:
The percentage efficacy was calculated after 7, 14, 21, 28 and 35 days of application (DAA). The target weed was weedy Eleusine indica, and the concentration of the herbicide and the results are recorded in the table 5 below:
The percentage efficacy was calculated after 3, 7, 28, 35 days of application (DAA). The target weed was weedy Eleusine indica, and the concentration of the herbicide and the results are recorded in the table 6 below: […]

[1] = 7 DAA, dose a.i. g/h: L-glufosinate 150, oxyfluorfen 107.1, imazethapyr 75, carfentrazone 7.5
[2] = 14 DAA, dose a.i. g/h: L-glufosinate 150, oxyfluorfen 107.1, imazethapyr 75, carfentrazone 7.5
[3] = 21 DAA, dose a.i. g/h: L-glufosinate 150, oxyfluorfen 107.1, imazethapyr 75, carfentrazone 7.5
[4] = 28 DAA, dose a.i. g/h: L-glufosinate 150, oxyfluorfen 107.1, imazethapyr 75, carfentrazone 7.5
[5] = 35 DAA, dose a.i. g/h: L-glufosinate 150, oxyfluorfen 107.1, imazethapyr 75, carfentrazone 7.5
[6] = Table 2, 7 DAA, g ai/h: L-glufosinate 150, glyphosate 379
[7] = Table 2, 35 DAA, g ai/h: L-glufosinate 150, glyphosate 379
[8] = Table 3, 3 DAA, g ai/h: L-glufosinate 150, flumioxazin 30
[9] = Table 3, 7 DAA, g ai/h: L-glufosinate 150, flumioxazin 30
[10] = Table 3, 14 DAA, g ai/h: L-glufosinate 150, flumioxazin 30
[11] = Table 3, 21 DAA, g ai/h: L-glufosinate 150, flumioxazin 30
[12] = Table 3, 28 DAA, g ai/h: L-glufosinate 150, flumioxazin 30
[13] = Table 3, 35 DAA, g ai/h: L-glufosinate 150, flumioxazin 30
[14] = Table 4, 3 DAA, g ai/h: L-glufosinate 150, 2,4-D 204
[15] = Table 4, 7 DAA, g ai/h: L-glufosinate 150, 2,4-D 204
[16] = Table 4, 14 DAA, g ai/h: L-glufosinate 150, 2,4-D 204
[17] = Table 4, 21 DAA, g ai/h: L-glufosinate 150, 2,4-D 204
[18] = Table 4, 28 DAA, g ai/h: L-glufosinate 150, 2,4-D 204
[19] = Table 4, 35 DAA, g ai/h: L-glufosinate 150, 2,4-D 204
[20] = Table 5, 7 DAA, g ai/h: L-glufosinate 150, triclopyr 288
[21] = Table 5, 14 DAA, g ai/h: L-glufosinate 150, triclopyr 288
[22] = Table 5, 21 DAA, g ai/h: L-glufosinate 150, triclopyr 288
[23] = Table 5, 28 DAA, g ai/h: L-glufosinate 150, triclopyr 288
[24] = Table 5, 35 DAA, g ai/h: L-glufosinate 150, triclopyr 288
[25] = Table 6, 3 DAA, g ai/h: L-glufosinate 150, clethodim 45
[26] = Table 6, 7 DAA, g ai/h: L-glufosinate 150, clethodim 45
[27] = Table 6, 28 DAA, g ai/h: L-glufosinate 150, clethodim 45
[28] = Table 6, 35 DAA, g ai/h: L-glufosinate 150, clethodim 45
[29] = Table 7, 7 DAA, g ai/h: L-glufosinate 150, haloxyfop 50

CP(=O)(O)CC[C@H](N)C(=O)O [L-glufosinate]
Control % [1]: 43.3% | Control % [2]: 41.3% | Control % [3]: 37.3% | Control % [4]: 28.3% | Control % [5]: 25.3% | % control [6]: 50.7% | % control [7]: 54.3% | % control [8]: 12.3% | % control [9]: 50.7% | % control [10]: 65.0% | % control [11]: 64.3% | % control [12]: 59.3% | % control [13]: 54.3% | % control [14]: 12.3% | % control [15]: 50.7% | % control [16]: 65.0% | % control [17]: 64.3% | % control [18]: 59.3% | % control [19]: 54.3% | % control [20]: 50.7% | % control [21]: 65.0% | % control [22]: 64.3% | % control [23]: 59.3% | % control [24]: 54.3% | % control [25]: 12.3% | % control [26]: 50.7% | % control [27]: 59.3% | % control [28]: 54.3% | % control [29]: 50.7%

C#CCN1C(=O)COc2cc(F)c(N3C(=O)C4=C(CCCC4)C3=O)cc21 [Flumioxazin, flumioxazin]
% control [8]: 5.0% | % control [9]: 28.3% | % control [10]: 21.7% | % control [11]: 10% | % control [12]: 5% | % control [13]: 0%

Cc1nn(-c2cc(CC(Cl)C(=O)O)c(Cl)cc2F)c(=O)n1C(F)F (stereo not shown) [Carfentrazone, carfentrazone]
Control % [1]: 14% | Control % (7 DAA, dose a.i. g/h: carfentrazone 9.0, alone or with L-glufosinate 150): 16.7% | Control % [2]: 12.3% | Control % (14 DAA, dose a.i. g/h: carfentrazone 9.0, alone or with L-glufosinate 150): 16.7% | Control % [3]: 11% | Control % (21 DAA, dose a.i. g/h: carfentrazone 9.0, alone or with L-glufosinate 150): 14% | Control % [4]: 7.7% | Control % (28 DAA, dose a.i. g/h: carfentrazone 9.0, alone or with L-glufosinate 150): 12.3% | Control % [5]: 0% | Control % (35 DAA, dose a.i. g/h: carfentrazone 9.0, alone or with L-glufosinate 150): 6.7%

CC(Oc1ccc(Oc2ncc(C(F)(F)F)cc2Cl)cc1)C(=O)O (stereo not shown) [Haloxyfop, haloxyfop]
% control [29]: 25%

CCc1cnc(C2=NC(C)(C(C)C)C(=O)N2)c(C(=O)O)c1 (stereo not shown) [Imazethapyr, imazethapyr]
Control % [1]: 8.3% | Control % [2]: 12% | Control % [3]: 12.7% | Control % [4]: 12.7% | Control % [5]: 10%

O=C(O)COc1nc(Cl)c(Cl)cc1Cl [Triclopyr, triclopyr]
% control [20]: 8% | % control [21]: 13.3% | % control [22]: 6.7% | % control [23]: 6.7% | % control [24]: 6.7%

O=C(O)CNCP(=O)(O)O [Glyphosate, glyphosate]
% control [6]: 28.3% | % control [7]: 81.7%

O=C(O)COc1ccc(Cl)cc1Cl [2,4-D]
% control [14]: 5% | % control [15]: 4% | % control [16]: 6.7% | % control [17]: 5% | % control [18]: 5% | % control [19]: 0%

CCOc1cc(Oc2ccc(C(F)(F)F)cc2Cl)ccc1[N+](=O)[O-] [Oxyfluorfen, oxyfluorfen]
Control % [1]: 44% | Control % [2]: 40% | Control % [3]: 37% | Control % [4]: 28.3% | Control % [5]: 23.3%

CCSC(C)CC1CC(=O)C(/C(CC)=N/OC/C=C/Cl)=C(O)C1 (stereo not shown) [Clethodim, clethodim]
% control [25]: 6.7% | % control [26]: 15% | % control [27]: 81.7% | % control [28]: 84.3%
